Legend:
kidney proximal tubules = experiment: Histology of kidney after gentamicin treatment (model system for nephrotoxicity); assay type: in vivo, rat; settings: rats, 100 mg/kg/day sc for 7 days
From the text: Permission for animal studies was obtained from the local regulatory agencies, and all study protocols were in compliance with animal welfare guidelines. Male HanBrl: Wistar rats of approximately 12 weeks of age (300g±20%) were obtained from BRL, Füllinsdorf, Switzerland. The animals were housed individually in Macrolone cages with wood shavings as bedding at […] and 50% relative humidity in a 12-hr light/dark rhythm with free access to water and Kliba 3433 rodent pellets (Provimi Kliba AG, Kaiseraugst, Switzerland).
(§1) Animals were treated for 7 consecutive days with 100 mg/kg/day Gentamicin (dissolved in saline) or vehicle by subcutaneous (sc) injections and sacrificed 24 hours after the last application by CO2 inhalation. Immediately preceding sacrifice, terminal blood samples for clinical chemistry investigations were collected from the retroorbital sinus under isofluoran anesthesia.
Representative kidney samples were fixed in 10% neutral buffered formalin. All samples were processed using routine procedures and embedded in Paraplast. Tissue sections approximately 2-3 microns were cut and stained with hematoxylin-eosin (HE) or periodic acid-Schiff (PAS).
Marked degeneration/regeneration of proximal tubules (grade 4) was clearly observed in rats treated with 100 mg/kg/day gentamicin for 7 days. This finding was correlated to the analysis of rat kidney thin sections by MALDI IMS. […]

rat kidney cortex = experiment: MALDI IMS profiling of rat kidney cortex thin sections, gentamicin-treated versus control; assay type: in vivo
Description: as §1
Marked degeneration/regeneration of proximal tubules (grade 4) was clearly observed in rats treated with 100 mg/kg/day gentamicin for 7 days. This finding was correlated to the analysis of rat kidney thin sections by MALDI IMS. 9 control and 9 gentamicin-treated rat kidneys thin sections (3 animals, 3 sections from each animal; the thin section was spotted with matrix as shown in FIG. 1) were subjected to mass spectrometric analysis as described below.
Kidneys were dissected from rats, snap frozen on dry ice and stored at −80° C. prior to further processing. 12 μm sections were obtained on a cryostat (LEICA CM 3000, Leica Microsystems) at −18° C. and deposited on ITO-coated conductive glass slides (Indium Tin Oxide 50×75×0.9 mm, Delta Technologies). Sample preparation were performed according to published procedure (Schwartz, S. A., Reyzer, M. L., and Caprioli, R. M. (2003) Journal of Mass Spectrometry 38, 699-708). Tissue sections were then fixed by immersion in ethanol bathes and let to dry 30 minutes under vacuum. During all the process the sections were stored as much as possible under vacuum. Deposition of MALDI matrix was done manually with a pipette. 200 nL of freshly prepared sinapinic acid solution (3,5-dimethoxy-4-hydroxycinnaminic acid, Fluka, 20 mg/ml in water/acetonitrile 1:1, 0.1% trifluoroacetic acid) was deposited onto the tissue. After crystallization, an additional 200 nL was layered onto the spots and the matrix was let to dry at room temperature. The sample was then kept under vacuum if not analyzed immediately by mass spectrometry.
MALDI MS spectra were acquired using an UltraFlex MALDI ToF/ToF instrument (Bruker Daltonics) with a standard 337-nm N2 laser operating at 50Hz and a laser spot size of 50 μm. The instrument was operated in positive linear mode (2 kDa-30 kDa) at constant laser power. A total of 8 times 100 laser shots were averaged for each manually deposited matrix droplets. Spectra were externally calibrated using a protein calibration standard solution (Insulin, Ubiquitin I, Cytochrom C, Myoglobin; Bruker Daltonics). Internal calibration was performed post-acquisition using redundant known peaks from the spectra (Hemoglobin α-chain, Thymosin β-4, Cytochrome c oxidase polypeptide VIIa L, Ubiquitin, Cytochrome c oxidase polypeptide VIb).
The spectra were processed using a combination of tools available commercially and developed in-house at Vanderbilt University. Baseline subtraction, normalization, peak detection, and spectral alignment were performed using the ProTS-Data software (Efeckta Technologies, Inc.) All spectra were baseline corrected to remove contributions of chemical noise to the signal. This step was performed by locally estimating the baseline and subtracting the […] from the raw data. For the present data set the software was set to consider a window width 10 times that of the peak width to account for the differences in resolution for different m/z regions. The baseline corrected spectra were normalized in intensity by scaling the spectra to a common total ion current. Peak detection was performed using ProTS-Data and a list of 13 common peaks was selected to be internal alignment points using a quadratic calibration function. The criterion used to select common peaks were that the peak must occur in greater than 80% of the spectra to be aligned, must not have interfering or overlapping peaks, and the peaks must have a standard deviation of the observed centroid value less that 7 mass units. […]

[1] = test system: transthyretin (prealbumin); experiment: Western blot of kidney cortex cytosolic fraction and HPLC fraction D10; assay type: in vivo, rat; settings: kidney cortex cytosolic fraction
Description: Tissue extracts from control and treated rat kidneys were obtained by homogenization of a piece of cortex in a 10 mM Tris-HCl buffer pH 7.6 containing 250 mM sucrose and protease inhibitors (Roche Complete). The tissue extract was subjected to three successive centrifugation steps at 4° C. (10 min at 680 g; 10 min at 10 000 g; 1 h at 100 000 g) whereas the pellets were discarded and the supernatant of the last centrifugation step was kept as the kidney cytosolic fraction.
1 μl of the kidney cytosolic fraction and of the relevant HPLC fraction were subjected to electrophoresis using a 4-20% Tris-Glycine SDS-PAGE gel (Invitrogen) and the proteins were subsequently transferred to a PVDF membrane. Blots were blocked in 5% milk in PBS containing 0.1% Tween 20 for 1 h and incubated overnight at room temperature with an […] (Abcam) in PBS containing 5% milk and 0.1% Tween 20. After washing with PBS containing 0.1% Tween 20, blots were incubated for 1 h with horseradish peroxidase conjugated with an anti-sheep IgG antibody (Silenus Laboratories). Antibody binding was detected using ECL western blotting reagents (Amersham).

transthyretin = experiment: Immunohistochemical examination of kidney; assay type: in vivo; settings: treated versus control rat, whole kidney sections
From the text: FIG. 8: Immunohistochemical examination of kidney from control and gentamicin-treated rat. […] High magnification photomicrographs from the cortex (C, E) vs. the medulla (D, F) reveal specific localization of TTR immunoreactivity in the cortex tubules of the treated kidney. Transthyretin immunoreactivity is visualized by the grey precipitate of diaminobenzidine-Ni counterstained with cresyl violet.

[2] = kidney cortex, 100 mg/kg/day sc 7 days

## Gentamicin
Kidney proximal tubules
  degeneration/regeneration of proximal tubules, grade: 4
Rat kidney cortex; in situ and in HPLC fraction D10
  presence of species 12959 (transthyretin S28-Q146) in mass spectrum: only present in the mass spectrum of the gentamicin-treated sample
Rat kidney cortex; kidney cortex
  doubly-charged species at m/z 6480, behaviour in treated versus control cortex: showed a similar behavior
Rat kidney cortex; [2]
  Average S/N (gent), peak m/z 3343.714: 2
  Average S/N (gent), peak m/z 4010.498: 1
  Average S/N (gent), peak m/z 4107.083: 5
  Average S/N (gent), peak m/z 4141.907: 1
  Average S/N (gent), peak m/z 4181.504: 0
  Average S/N (gent), peak m/z 4497.792: 0
  Average S/N (gent), peak m/z 5096.886: 5
  Average S/N (gent), peak m/z 5222.249: 0
  Average S/N (gent), peak m/z 5301.852: 0
  Average S/N (gent), peak m/z 5355.669: 1
  Average S/N (gent), peak m/z 5478.957: 2
  Average S/N (gent), peak m/z 6080.035: 1
  Average S/N (gent), peak m/z 6498.996: 0
  Average S/N (gent), peak m/z 6912.956: 6
  Average S/N (gent), peak m/z 6938.997: 1
  Average S/N (gent), peak m/z 7083.364: 6
  Average S/N (gent), peak m/z 12959.23: 5
  Average S/N (gent), peak m/z 13004.71: 0
  Average S/N (gent), peak m/z 17100.68: 0
  Average S/N (gent), peak m/z 17176.83: 0
[1]
  transthyretin abundance in kidney by Western blot, gentamicin-treated versus control rats: significantly more abundant
transthyretin
  transthyretin immunoreactivity in kidney cortex: high levels of transthyretin immunoreactivity

From patent US20070069122A1, “In situ polypeptide identification” (priority 2005, published 2007)
